The record followed here is publication PMC12529164, “Design, Synthesis, Structure–Activity Relationships, and Preliminary Anticancer Properties of Menthol-Modified Coumarin Esters and 3,4-Dihydrocoumarin Derivatives” (ACS Omega, 2025).

Test [1] deals with tested cancer cell lines (SW480, SW620, PC3, MDA-MB-231). Description: MTT assay, mean over tested cancer cell lines. The note with it: Homo sapiens; Table S7; mean of the four cancer cell lines, >100 entered as 100; read-out: mean anticancer IC50. It is filed as cell-based. The procedure:
They were added to 96-well plates with seeded normal and cancer cells (1 × 10^4 cells per well) and incubated for 72 h. MTT analysis was performed according to a previous study. […]
(In general: Tetrazolium assays rely on reduction of a dye to a coloured formazan, in cell work by metabolically active cells.)

Another test concerns HaCaT. As to the kind of experiment: MTT cytotoxicity assay, normal cells. The test is classed as cell-based. The note with it: HaCaT, 72 h, human immortal keratinocytes (normal cells). The method, then:
(§1) The human primary (SW480) and metastatic (SW620) colon cancer, metastatic prostate cancer (PC3), breast adenocarcinoma (MDA-MB-231) and human immortal keratinocyte (HaCaT) cell lines were recruited from the American Type Culture Collection (ATCC). The cells were cultured in the recommended medium according to protocols (RPMI 1640 for PC3, MEM for SW480 and SW620, as well as DMEM for MDA-MB-231 and HaCaT cells) with addition of 10% FBS, penicillin (100 U/mL), and streptomycin (100 μg/mL) and cultured in 37 °C/5% CO2 in a humidified incubator. Then, the cells were passaged at a confluence of 80–90% by a treatment with 0.25% trypsin (Gibco Life Technologies) and used for studies.
(§2) They were added to 96-well plates with seeded normal and cancer cells (1 × 10^4 cells per well) and incubated for 72 h. MTT analysis was performed according to a previous study.

The next test deals with PC3. Description: MTT cytotoxicity assay. The note with it: for IC50: PC-3, MTT, 72 h, human metastatic prostate cancer; for SI PC3: SI = IC50 for normal cell line (HaCaT)/IC50 cancer cell line. The test is classed as cell-based, human. The method, then: as §1, §2
The test system of a further test is SW480. Description: MTT cytotoxicity assay. It is filed as cell-based, human. The note with it: for SI SW480: SI = IC50 for normal cell line (HaCaT)/IC50 cancer cell line; for IC50: SW480, MTT, 72 h, human primary colon cancer. The procedure:
as §1, §2

Another test concerns SW620. As to the kind of experiment: MTT cytotoxicity assay. The test is classed as cell-based, human. As to conditions: for SI SW620: SI = IC50 for normal cell line (HaCaT)/IC50 cancer cell line; for IC50: SW-620, MTT, 72 h, human metastatic colon cancer. The method, then:
as §1, §2

The test system of a further test is MDA-MB-231. As to the kind of experiment: MTT cytotoxicity assay. It is filed as cell-based, human. The note with it: for IC50: MDA-MB-231, MTT, 72 h, human breast adenocarcinoma; for SI MDA-MB-231: SI = IC50 for normal cell line (HaCaT)/IC50 cancer cell line. The procedure: as §1, §2

Bounds are passed on as bounds.

For the compound `O=C(OC1CCCCC1)c1cc2ccccc2oc1=O` [Compound 1f, Cyclohexyl 2-Oxo-2H-chromene-3-carboxylate], the IC50 (in test [1]; in the test on HaCaT; in the test with PC3; with SW480; in the test on SW620; with MDA-MB-231) was more than 100 µM throughout. Moreover, the “SI PC3” value in the test on PC3 was 1. Besides, the “SI SW480” value in the test with SW480 was 1. Besides, in the test with SW620, the “SI SW620” value was 1. For the same compound, in the test on MDA-MB-231, the “SI MDA-MB-231” value is reported as 1.
With `COc1cccc2cc(P(=O)(c3ccccc3)c3ccccc3)c(=O)oc12` [Compound 3, 3-(Diphenylphosphinyl)-8-methoxy-2H-chromen-2-one], the IC50 (in test [1]; in the test on HaCaT; in the test on PC3; in the test with SW480; in the test with SW620; in the test on MDA-MB-231) was more than 100 µM each time. In addition, in the test on PC3, the “SI PC3” value came to 1. Besides, the “SI SW480” value in the test with SW480 was determined as 1. Further, the “SI SW620” value in the test on SW620 was 1. Besides, the “SI MDA-MB-231” value in the test on MDA-MB-231 came to 1.
Turning to `CCOC(=O)C1C(=O)Oc2ccccc2C1P(=O)(c1ccccc1)c1ccccc1` (stereo not drawn) [Compound 4c, Ethyl 4-(Diphenylphosphoryl)-2-oxochroman-3-carboxylate], the IC50 (in test [1]; with HaCaT; in the test with PC3; in the test on SW480; with SW620; in the test on MDA-MB-231) was more than 100 µM throughout. Moreover, the “SI PC3” value in the test with PC3 was determined as 1. The “SI SW480” value in the test on SW480 is given as 1. Besides, the “SI SW620” value in the test on SW620 was determined as 1. Further, the “SI MDA-MB-231” value in the test with MDA-MB-231 came to 1.
For `CCOC(=O)C1C(=O)Oc2ccccc2C1P(=O)(OCC)OCC` (stereo not drawn) [Compound 4d, Ethyl 4-(diethoxyphosphoryl)-2-oxochroman-3-carboxylate], the IC50 (in test [1]; in the test with HaCaT; in the test on PC3; in the test on SW480; in the test on SW620; in the test on MDA-MB-231) was more than 100 µM throughout. Besides, the “SI PC3” value with PC3 amounted to 1. For the same compound, in the test with SW480, the “SI SW480” value is 1. For the same compound, in the test with SW620, the “SI SW620” value was found to be 1. Besides, the “SI MDA-MB-231” value with MDA-MB-231 amounted to 1.
For `CCOP(=O)(OCC)C1C(=O)Oc2ccccc2C1P(=O)(c1ccccc1)c1ccccc1` (stereo not drawn) [Compound 5a, Diethyl (4-(Diphenylphosphoryl)-2-oxochroman-3-yl)phosphonate], the half-maximal inhibitory concentration (IC50) (in test [1]; in the test on HaCaT; in the test on PC3; with SW480; with SW620; with MDA-MB-231) was more than 100 µM throughout. Further, the “SI PC3” value with PC3 is reported as 1. For the same compound, the “SI SW480” value with SW480 is 1. The “SI SW620” value with SW620 was found to be 1. Further, the “SI MDA-MB-231” value with MDA-MB-231 is listed as 1.
In the case of `CCOP(=O)(OCC)C1C(=O)Oc2c(OC)cccc2C1P(=O)(c1ccccc1)c1ccccc1` (stereo not drawn) [Compound 5b, Diethyl (4-(Diphenylphosphoryl)-8-methoxy-2-oxochroman-3-yl)phosphonate], the IC50 (in test [1]; with HaCaT; in the test on PC3; in the test on SW480; in the test with SW620; in the test with MDA-MB-231) was more than 100 µM in each case. For the same compound, the “SI PC3” value in the test with PC3 amounted to 1. The “SI SW480” value with SW480 is 1. For the same compound, the “SI SW620” value in the test on SW620 worked out at 1. Besides, the “SI MDA-MB-231” value in the test with MDA-MB-231 was found to be 1.

As usually defined, the IC50 is the concentration needed to halve the response being measured.
